# Data published in patent publication US12209102B2, “Heterocyclic compounds and uses thereof” (Kumquat Biosciences Inc., priority 2022, dated 2025).
# Key:
# K-Ras G12D = target: T1, K-Ras G12D (Homo sapiens, UniProt P01116, G12D); test: HTRF resonance energy transfer assay, K-Ras G12D / SOS1 interaction; type: biochemical; settings: HTRF assay of Example 5; read-out: IC50 against K-Ras G12D
# T1 construct: made in house; host or cells: E. coli BL21 (DE3)
# In short: (§1)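 Read-out: HTRF 665/620 nm ratio (excitation 337 nm) after roughly 10 min or longer incubation, used to derive IC50. Donor anti-GST-Eu on GST-K-Ras; acceptor anti-6His-XL665 on His-hSOS1. Duplicate dose series from 10 μM down to 0.01 μM.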
# K-Ras G12S = target: T2, K-Ras G12S (Homo sapiens, UniProt P01116, G12S); test: HTRF resonance energy transfer assay, K-Ras G12S / SOS1 interaction; type: biochemical; settings: HTRF assay of Example 5; read-out: IC50 against K-Ras G12S
# T2 construct: made in house; host or cells: E. coli BL21 (DE3)
# In short: as §1
# K-Ras G12V = target: T3, K-Ras G12V (Homo sapiens, UniProt P01116, G12V); test: HTRF resonance energy transfer assay, K-Ras G12V / SOS1 interaction; type: biochemical; settings: HTRF assay of Example 5; read-out: IC50 against K-Ras G12V
# T3 construct: made in house; host or cells: E. coli BL21 (DE3)
# In short: as §1
# K-Ras WT = target: T4, K-Ras WT (Homo sapiens, UniProt P01116); test: HTRF resonance energy transfer assay, K-Ras WT / SOS1 interaction; type: biochemical; settings: HTRF assay of Example 5; read-out: IC50 against K-Ras WT
# T4 construct: made in house; host or cells: E. coli BL21 (DE3)
# In short: as §1
# GP2D cells = test: Ras cellular assay, growth of cells with K-Ras G12D mutation (CellTiter-Glo); type: cell-based; settings: cell growth, Example 9, G12D mutation, read-out: IC50 against GP2D cells
# A549 cells = test: Ras cellular assay, growth of cells with K-Ras G12S mutation (CellTiter-Glo); type: cell-based; settings: Homo sapiens, cell growth, Example 9, G12S mutation, read-out: IC50 against A549 cells
# In short: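 A549 cells (K-Ras G12S) in RPMI-1640 with 10% heat-inactivated FBS, seeded e.g. 800 per well in standard or ultra-low-attachment 384-well plates, treated next day with a dilution series (e.g. 10-point, 3-fold). Viability by CellTiter-Glo luminescence about 6 days later; IC50 from four-parameter fit.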
# SW620 cells = test: Ras cellular assay, growth of cells with K-Ras G12V mutation (CellTiter-Glo); type: cell-based; settings: Homo sapiens, SW-620; cell growth, Example 9, G12V mutation; read-out: IC50 against SW620 cells
# In short: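 SW620 (K-Ras G12V) cells, e.g. 800/well in RPMI-1640 with 10% heat-inactivated FBS on standard or ultra-low attachment plates, were dosed the day after plating with e.g. a 10-point 3-fold series. Viability by CellTiter-Glo luminescence about 6 days later; IC50 from four-parameter fit.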
# T3 sequence (P01116 1-188 isoform P01116-2 G12V): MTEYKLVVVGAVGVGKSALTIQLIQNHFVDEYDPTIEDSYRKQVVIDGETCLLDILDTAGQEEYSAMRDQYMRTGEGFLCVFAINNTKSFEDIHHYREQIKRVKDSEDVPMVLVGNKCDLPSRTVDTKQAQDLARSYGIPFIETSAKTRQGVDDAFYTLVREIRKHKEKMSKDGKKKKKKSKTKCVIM
# T1 sequence (P01116 1-188 isoform P01116-2 G12D): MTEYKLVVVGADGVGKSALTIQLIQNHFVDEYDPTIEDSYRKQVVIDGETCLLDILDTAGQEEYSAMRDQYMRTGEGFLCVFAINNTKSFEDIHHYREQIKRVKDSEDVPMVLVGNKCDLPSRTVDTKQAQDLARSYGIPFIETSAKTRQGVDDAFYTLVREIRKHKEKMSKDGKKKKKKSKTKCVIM
# T2 sequence (P01116 1-188 isoform P01116-2 G12S): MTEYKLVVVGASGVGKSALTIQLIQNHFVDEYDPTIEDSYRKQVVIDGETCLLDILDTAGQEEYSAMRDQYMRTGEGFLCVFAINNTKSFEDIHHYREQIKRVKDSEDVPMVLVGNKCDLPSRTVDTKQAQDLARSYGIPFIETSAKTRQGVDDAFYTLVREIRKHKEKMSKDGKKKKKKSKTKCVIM
# T4 sequence (P01116 1-188 isoform P01116-2): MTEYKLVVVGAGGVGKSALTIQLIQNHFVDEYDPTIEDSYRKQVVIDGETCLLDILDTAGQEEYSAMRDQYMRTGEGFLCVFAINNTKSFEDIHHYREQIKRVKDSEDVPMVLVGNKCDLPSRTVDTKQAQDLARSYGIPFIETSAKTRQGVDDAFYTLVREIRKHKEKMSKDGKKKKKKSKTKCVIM
SMILES,IC50 (K-Ras G12D),IC50 (K-Ras G12S),IC50 (K-Ras G12V),IC50 (K-Ras WT),IC50 (A549 cells),IC50 (SW620 cells),IC50 (GP2D cells)
"N#Cc1c(N)sc2c(F)ccc(-c3c(Cl)c4c5c(nc(OC[C@@]67CCCN6C[C@H](F)C7)nc5c3F)N(CC(F)F)[C@@H](CN)CO4)c12 [Compound 914, 2-amino-4-((5S)-5-(aminomethyl)-8-chloro-4-(2,2-difluoroethyl)-10-fluoro-2-(((2R,7aS)-2-fluorotetrahydro-1H-pyrrolizin-7a(5H)-yl)methoxy)-5,6-dihydro-4H-[1,4]oxazepino[5,6,7-de]quinazolin-9-yl)-7-fluorobenzo[b]thiophene-3-carbonitrile]",< 100 nM,< 100 nM,< 100 nM,< 100 nM,< 5000 nM,< 5000 nM,< 500 nM
"CN1c2nc(OC[C@@]34CCCN3C[C@H](F)C4)nc3c(F)c(-c4ccc(F)c5sc(N)c(C#N)c45)c(Cl)c(c23)OC[C@@H]1CN [Compound 1113, 2-amino-4-((5S)-5-(aminomethyl)-8-chloro-10-fluoro-2-(((2R,7aS)-2-fluorotetrahydro-1H-pyrrolizin-7a(5H)-yl)methoxy)-4-methyl-5,6-dihydro-4H-[1,4]oxazepino[5,6,7-de]quinazolin-9-yl)-7-fluorobenzo[b]thiophene-3-carbonitrile]",< 100 nM,< 100 nM,< 100 nM,< 100 nM,< 5000 nM,< 5000 nM,< 500 nM
"N#Cc1c(N)sc2c(F)ccc(-c3c(Cl)c4c5c(nc(OC[C@@]67CCCN6C[C@H](F)C7)nc5c3F)N(CCC(F)(F)F)CCO4)c12 [Compound 932, 2-amino-4-(8-chloro-10-fluoro-2-(((2R,7aS)-2-fluorotetrahydro-1H-pyrrolizin-7a(5H)-yl)methoxy)-4-(3,3,3-trifluoropropyl)-5,6-dihydro-4H-[1,4]oxazepino[5,6,7-de]quinazolin-9-yl)-7-fluorobenzo[b]thiophene-3-carbonitrile]",< 100 nM,< 100 nM,< 100 nM,< 100 nM,< 5000 nM,< 5000 nM,< 500 nM
"CC(C)(O)C1COc2c(Cl)c(-c3ccc(F)c4sc(N)c(C#N)c34)c(F)c3nc(OC[C@@]45CCCN4C[C@H](F)C5)nc(c23)N1CC(F)F (stereo partly drawn) [Compound 755, 2-amino-4-(8-chloro-4-(2,2-difluoroethyl)-10-fluoro-2-(((2R,7aS)-2-fluorotetrahydro-1H-pyrrolizin-7a(5H)-yl)methoxy)-5-(2-hydroxypropan-2-yl)-5,6-dihydro-4H-[1,4]oxazepino[5,6,7-de]quinazolin-9-yl)-7-fluorobenzo[b]thiophene-3-carbonitrile]",< 100 nM,< 100 nM,< 100 nM,< 100 nM,< 5000 nM,< 5000 nM,< 500 nM
"C=C[C@H]1COc2c(Cl)c(-c3ccc(F)c4sc(N)c(C#N)c34)c(F)c3nc(OC[C@@]45CCCN4C[C@H](F)C5)nc(c23)N1CC(F)F (single isomer, unassigned) [Compound 890]",< 100 nM,< 100 nM,< 100 nM,< 100 nM,< 5000 nM,< 5000 nM,< 500 nM

# The next lines start with results.
IC50 (K-Ras G12D),IC50 (K-Ras G12S),IC50 (K-Ras G12V),IC50 (K-Ras WT),IC50 (A549 cells),IC50 (SW620 cells),SMILES,IC50 (GP2D cells)
< 100 nM,< 100 nM,< 100 nM,< 100 nM,< 5000 nM,< 5000 nM,"N#Cc1c(N)sc2c(F)ccc(-c3c(Cl)c4c5c(nc(OC[C@@]67CCCN6C[C@H](F)C7)nc5c3F)N(CC(F)(F)F)CCO4)c12 [Compound 721, 2-amino-4-(8-chloro-10-fluoro-2-(((2R,7aS)-2-fluorotetrahydro-1H-pyrrolizin-7a(5H)-yl)methoxy)-4-(2,2,2-trifluoroethyl)-5,6-dihydro-4H-[1,4]oxazepino[5,6,7-de]quinazolin-9-yl)-7-fluorobenzo[b]thiophene-3-carbonitrile]",< 500 nM
< 100 nM,< 100 nM,< 100 nM,< 100 nM,< 5000 nM,< 5000 nM,"N#Cc1c(N)sc2c(F)ccc(-c3c(Cl)c4c5c(nc(OC[C@@]67CCCN6C[C@H](F)C7)nc5c3F)N(C3CCN(C(=O)COC(F)F)C3)CCO4)c12 (stereo partly drawn) [Compound 785, 2-amino-4-(8-chloro-4-(1-(2-(difluoromethoxy)acetyl)pyrrolidin-3-yl)-10-fluoro-2-(((2R,7aS)-2-fluorotetrahydro-1H-pyrrolizin-7a(5H)-yl)methoxy)-5,6-dihydro-4H-[1,4]oxazepino[5,6,7-de]quinazolin-9-yl)-7-fluorobenzo[b]thiophene-3-carbonitrile]",< 500 nM
< 100 nM,< 100 nM,< 100 nM,< 100 nM,< 5000 nM,< 5000 nM,"C[C@H](O)[C@H]1COc2c(Cl)c(-c3ccc(F)c4sc(N)c(C#N)c34)c(F)c3nc(OC[C@@]45CCCN4C[C@H](F)C5)nc(c23)N1CCC(F)F [Compound 954, 2-amino-4-((5R)-8-chloro-4-(3,3-difluoropropyl)-10-fluoro-2-(((2R,7aS)-2-fluorotetrahydro-1H-pyrrolizin-7a(5H)-yl)methoxy)-5-((S)-1-hydroxyethyl)-5,6-dihydro-4H-[1,4]oxazepino[5,6,7-de]quinazolin-9-yl)-7-fluorobenzo[b]thiophene-3-carbonitrile]",< 500 nM
< 100 nM,< 100 nM,< 100 nM,< 100 nM,< 5000 nM,< 5000 nM,"CC(C)N1CCOc2c(Cl)c(-c3ccc(F)c4sc(N)c(C#N)c34)c(F)c3nc(OC[C@@]45CCCN4C[C@H](F)C5)nc1c23 [Compound 1025, 2-amino-4-(8-chloro-10-fluoro-2-(((2R,7aS)-2-fluorotetrahydro-1H-pyrrolizin-7a(5H)-yl)methoxy)-4-isopropyl-5,6-dihydro-4H-[1,4]oxazepino[5,6,7-de]quinazolin-9-yl)-7-fluorobenzo[b]thiophene-3-carbonitrile]",< 500 nM
< 100 nM,< 100 nM,< 100 nM,< 100 nM,< 5000 nM,< 5000 nM,"N#Cc1c(N)sc2c(F)ccc(-c3c(Cl)c4c5c(nc(OC[C@@]67CCCN6C[C@H](F)C7)nc5c3F)N(C3CCN(C=O)C3)CCO4)c12 (stereo partly drawn) [Compound 1052, 2-amino-4-(8-chloro-10-fluoro-2-(((2R,7aS)-2-fluorotetrahydro-1H-pyrrolizin-7a(5H)-yl)methoxy)-4-(1-formylpyrrolidin-3-yl)-5,6-dihydro-4H-[1,4]oxazepino[5,6,7-de]quinazolin-9-yl)-7-fluorobenzo[b]thiophene-3-carbonitrile]",< 500 nM
< 100 nM,< 100 nM,< 100 nM,< 100 nM,< 5000 nM,< 5000 nM,"C[C@H]1COc2c(Cl)c(-c3ccc(F)c4sc(N)c(C#N)c34)c(F)c3nc(OC[C@@]45CCCN4C[C@H](F)C5)nc(c23)N1CCC(F)F [Compound 835, 2-amino-4-((5S)-8-chloro-4-(3,3-difluoropropyl)-10-fluoro-2-(((2R,7aS)-2-fluorotetrahydro-1H-pyrrolizin-7a(5H)-yl)methoxy)-5-methyl-5,6-dihydro-4H-[1,4]oxazepino[5,6,7-de]quinazolin-9-yl)-7-fluorobenzo[b]thiophene-3-carbonitrile]",< 500 nM
< 100 nM,< 100 nM,< 100 nM,< 100 nM,< 5000 nM,< 5000 nM,"N#Cc1c(N)sc2c(F)ccc(-c3c(Cl)c4c5c(nc(OC[C@@]67CCCN6C[C@H](F)C7)nc5c3F)N(C3CCN(C(=O)C5CC(C(F)F)C5)C3)CCO4)c12 (stereo partly drawn) [Compound 864, 2-amino-4-(8-chloro-4-(1-(3-(difluoromethyl)cyclobutane-1-carbonyl)pyrrolidin-3-yl)-10-fluoro-2-(((2R,7aS)-2-fluorotetrahydro-1H-pyrrolizin-7a(5H)-yl)methoxy)-5,6-dihydro-4H-[1,4]oxazepino[5,6,7-de]quinazolin-9-yl)-7-fluorobenzo[b]thiophene-3-carbonitrile]",< 500 nM
